Data reported in US7829297B2, “Treatment of cancers expressing p95 ErbB2” (GlaxoSmithKline LLC, priority 2003, dated 2010).

Legend:
p185^ErbB2 [1] = molecular target: T1, p185^ErbB2 (Homo sapiens, UniProt P04626); test: Western blot of phospho-p185ErbB2 in Hb4a cells; details: parental Hb4a cells, 5 μM, 24 hours
ErbB3 = ErbB3 phosphorylation in BT474 tumor xenografts (IP Western blot); details: 100 mg/kg/dose, compared with vehicle
Procedure: Tumors were removed 4 hours after the last dose, frozen in liquid Nitrogen, and stored at −80° C. until analysis. For the terminal biopsy, mice were euthanized with CO2 inhalation. Cell extracts were prepared by homogenization in RIPA buffer at 4° C.
As shown in FIG. 6a-6c, the activation-state of EGFR, p185^ErbB2, p95^ErbB2, and ErbB3 was assessed by IP Western blot.

p95^ErbB2 [2] = test: Western blot of p95ErbB2 in BT474 cells; format: cell-based, human
Procedure: (§1) Equal amounts of protein were separated by SDS-PAGE and then ErbB2, p95^ErbB2, pTyr/p95^ErbB2, and pTyr/ErbB2 steady state protein levels were assessed by Western blot. […] Along the left side of the lanes, the uppermost arrow indicates p185; lower arrowhead indicates p95. Molecular weights are indicated on the right side of the figure.

p185^ErbB2 [3] = molecular target: T1, p185^ErbB2; test: p185ErbB2 in BT474 tumor xenografts (Western blot); format: in vivo, mice; design: The full-length ErbB2 receptor (p185^ErbB2); from tissue; host or cells: BT474 tumour xenografts in mice; details: GW572016 100 mg/kg/dose PO or trastuzumab IP
Excerpt: (§2) BT474 tumor xenografts were established in CD-1 nude mice.

[4] = tested on: solid tumor overexpressing or expressing activated EGFR or ErbB2; test: Open label, multi-dose clinical trial in subjects with cancer; format: in vivo, human
BT474 cells = test: Proliferation of BT474 cells; format: cell-based, human
p185^ErbB2 [5] = molecular target: T1, p185^ErbB2; test: Western blot of phospho-p185ErbB2 in S1 cells; details: 5 μM, 24 hours
Erk1/2 and AKT = test: Activation of Erk1/2 and AKT by EGF and heregulin in BT474 cells; format: cell-based, human; details: 1 μM
p95 = test: Western blot of phospho-p95 in S1 cells; details: 5 μM, 24 hours
p185^ErbB2 [6] = molecular target: T1, p185^ErbB2; test: Western blot of p185ErbB2 in BT474 cells; format: cell-based; design: The full-length ErbB2 receptor (p185^ErbB2); endogenous in cells; host or cells: BT474
Procedure: as §1

p95^ErbB2 [7] = test: p95ErbB2 in BT474 tumor xenografts (Western blot); format: in vivo, mice
Excerpt: as §2

[8] = tested on: MAPK-Erk1/2 and PI3K-AKT pathways, cyclin D1/2; test: Downstream signaling in BT474 tumor xenografts (Western blot); format: in vivo, mice
Procedure: Equal amounts of protein from tumor xenograft whole cell extracts were separated by SDS-PAGE and steady state protein levels of total and phosphorylated forms Erk1/2 and AKT were assessed by Western blot. Cyclin D1/2 steady state protein levels were also determined.

[9] = 24 hours, 0.5 μM GW572016 or 10 μg/ml trastuzumab
[10] = 11 breast cancer subjects previously treated with trastuzumab
[11] = GW572016 or trastuzumab (10 mg/kg)

T1 sequence (P04626 23-1255): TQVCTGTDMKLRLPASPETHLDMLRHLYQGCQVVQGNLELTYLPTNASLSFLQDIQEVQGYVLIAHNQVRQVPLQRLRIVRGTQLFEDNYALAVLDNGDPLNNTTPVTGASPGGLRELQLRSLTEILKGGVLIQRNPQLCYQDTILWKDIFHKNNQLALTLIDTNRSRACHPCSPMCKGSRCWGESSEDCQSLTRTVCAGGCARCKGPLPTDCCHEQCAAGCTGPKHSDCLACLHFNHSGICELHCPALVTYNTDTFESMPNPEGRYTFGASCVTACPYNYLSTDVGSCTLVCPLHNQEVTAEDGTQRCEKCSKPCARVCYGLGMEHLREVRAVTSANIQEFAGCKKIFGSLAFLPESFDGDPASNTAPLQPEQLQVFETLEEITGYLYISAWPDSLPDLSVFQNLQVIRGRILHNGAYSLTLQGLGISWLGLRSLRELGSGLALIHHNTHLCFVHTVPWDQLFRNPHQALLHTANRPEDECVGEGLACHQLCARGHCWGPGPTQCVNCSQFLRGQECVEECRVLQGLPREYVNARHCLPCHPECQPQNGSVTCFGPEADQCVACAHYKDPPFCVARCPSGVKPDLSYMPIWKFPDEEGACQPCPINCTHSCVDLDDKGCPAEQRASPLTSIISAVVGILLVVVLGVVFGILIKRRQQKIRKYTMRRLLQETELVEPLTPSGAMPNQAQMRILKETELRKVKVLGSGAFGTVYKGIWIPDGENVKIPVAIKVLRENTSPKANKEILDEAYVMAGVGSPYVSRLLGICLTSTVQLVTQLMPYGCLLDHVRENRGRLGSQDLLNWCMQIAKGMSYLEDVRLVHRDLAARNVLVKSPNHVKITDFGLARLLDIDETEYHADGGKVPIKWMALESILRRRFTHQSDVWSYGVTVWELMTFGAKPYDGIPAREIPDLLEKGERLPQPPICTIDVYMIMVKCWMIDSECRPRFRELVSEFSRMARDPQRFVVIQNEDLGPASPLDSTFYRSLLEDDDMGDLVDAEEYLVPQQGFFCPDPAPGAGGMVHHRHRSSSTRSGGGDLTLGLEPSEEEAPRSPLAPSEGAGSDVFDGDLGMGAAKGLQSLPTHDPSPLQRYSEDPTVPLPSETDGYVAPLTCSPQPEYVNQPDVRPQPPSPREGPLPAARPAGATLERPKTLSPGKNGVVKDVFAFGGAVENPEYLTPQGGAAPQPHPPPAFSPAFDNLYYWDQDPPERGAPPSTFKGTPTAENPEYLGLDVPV

## CS(=O)(=O)CCNCc1ccc(-c2ccc3ncnc(Nc4ccc(OCc5cccc(F)c5)c(Cl)c4)c3c2)o1 [GW572016, N-{3-Chloro-4-[(3-fluorobenzyl)oxy]phenyl}-6-[5-({[2-(methylsulfonyl)ethyl]amino}methyl)-2-furyl]-4-quinazolinamine]
p185^ErbB2 [1]
  phosphorylation of p185ErbB2: inhibited
ErbB3
  ErbB3 tyrosine phosphorylation: markedly inhibited
p95^ErbB2 [2]; 1 μM, 16 hours, ErbB2 IP
  phosphorylation of p95ErbB2 in presence and absence of HRG and EGF: inhibited
p95^ErbB2 [2]; 1 μM, 16 hours, HRG 5 nM 15 min, ErbB3 IP
  HRG-induced p95ErbB2 phosphorylation: partially blocked
p95^ErbB2 [2]; [9]
  tyrosine phosphorylation of p95ErbB2 (anti-pTyr mAb): inhibited
p185^ErbB2 [3]
  phospho-p185ErbB2 steady state protein levels: inhibited
  steady state protein levels of total p185ErbB2: unchanged
[4]; [10]
  Partial Responses among breast cancer subjects: three
  Stable Disease among breast cancer subjects: four
[4]; 11 breast cancer subjects, all previously treated with trastuzumab, oral ditosylate salt, daily
  breast cancer subjects exhibiting responses, of eleven: seven
[4]; Patient No. 361, 1200 mg/day
  response of bone metastases: did not respond
  time to disappearance of all subcutaneous nodules: ≤ 28 days
[4]; Patient No. 372, 1200 mg/day
  anterior abdominal wall nodules: improved
[4]; Patient No. 372, 1200 mg/day, August to October 2002
  decrease in two right breast masses: 70%
[4]; adenocarcinoma of unknown primary origin
  stable disease, number of subjects: 1
[4]; colorectal cancer
  stable disease, number of subjects: 2
[4]; granular cell cancer
  stable disease, number of subjects: 1
[4]; head and neck cancer
  stable disease, number of subjects: 1
[4]; initial 33 subjects with validated responses, all tumor types
  total responses out of 33 subjects: 15
[4]; lung cancer
  stable disease, number of subjects: 1
[4]; ovarian cancer
  stable disease, number of subjects: 2
BT474 cells
  proliferation of BT474 cells: inhibited
BT474 cells; BT474 cells
  reversal of antiproliferative effect in the presence of EGF: not completely reversed
BT474 cells; BT474 cells, 1 μM, prolonged incubation (data not shown)
  effect of prolonged incubation on protection by heregulin: abrogated the protective effects of heregulin
BT474 cells; BT474 cells, 72 hour assay
  reversal of inhibitory effects by addition of heregulin: partially reversed
p185^ErbB2 [5]
  p185ErbB2 phosphorylation: inhibited
Erk1/2 and AKT; EGF 50 ng/ml 15 minutes
  EGF-induced increase of p-Erk1/2 steady state protein levels: blocked
Erk1/2 and AKT; HRG
  HRG-induced AKT phosphorylation: partially inhibited
p95
  p95 phosphorylation: inhibited
p185^ErbB2 [6]; 1 μM, 16 hours, ErbB2 IP
  phosphorylation of p185ErbB2 in presence and absence of HRG and EGF: inhibited
p185^ErbB2 [6]; 1 μM, 24 hours
  p185ErbB2 phosphorylation (anti-pTyr Western blot): inhibited
p185^ErbB2 [6]; [9]
  steady-state p185ErbB2 protein levels (anti-ErbB2 ECD mAb): did not vary
  tyrosine phosphorylation of p185ErbB2 (anti-pTyr mAb): inhibited
p95^ErbB2 [7]; GW572016 100 mg/kg/dose PO or trastuzumab IP
  steady state protein levels of total p95ErbB2: unchanged
p95^ErbB2 [7]; GW572016 100 mg/kg/dose PO, 100 mg/kg
  phospho-p95ErbB2 steady state protein levels: markedly inhibited
p95^ErbB2 [7]; GW572016 100 mg/kg/dose or trastuzumab
  Y1248 phosphorylation in p95ErbB2: inhibited
[8]
  total steady state protein levels of Erk1/2 and AKT: without affecting
[8]; [11]
  cyclin D steady state protein levels: inhibited
  p-AKT steady state protein levels: inhibited
  p-Erk1/2 steady state protein levels: inhibited
